# In ChEMBL document CHEMBL1156451 (J Biol Chem, 2007):
# The source made the active and inactive calls. No cut-off for these calls is given here. Where a SMILES comes first, the peptide text is derived from it.
# How the values were obtained:
# [1] = system: Brucella abortus; assay: Antibacterial activity against Brucella abortus 9.19 (per-) after 24 hrs in Mueller-Hinton broth medium; assay type: functional
# [2] = system: Escherichia coli; assay: Antibacterial activity against Escherichia coli K12 ATCC 23716 after 24 hrs in Mueller-Hinton broth medium; assay type: functional; conditions: K12, 24 h
# [3] = system: Bordetella bronchiseptica; assay: Antibacterial activity against Bordetella bronchiseptica CUN 11844-99 after 24 hrs in Mueller-Hinton broth medium; assay type: functional
# [4] = system: HeLa; assay: Cytotoxicity against human HeLa cells at 100 ug/ml after 24 hrs by neutral red uptake assay relative to control; assay type: functional
# [5] = system: Pseudomonas aeruginosa; assay: Antibacterial activity against Pseudomonas aeruginosa CUN 4158-02 after 24 hrs in Mueller-Hinton broth medium; assay type: functional
# [6] = system: Escherichia coli; assay: Antibacterial activity against Escherichia coli K12 ATCC 23716 in 10% Luria-Bertani medium/90% Hepes buffer at pH 7.0; assay type: functional
# [7] = system: Escherichia coli; assay: Antibacterial activity against Escherichia coli ATCC 25922 after 24 hrs in Mueller-Hinton broth medium; assay type: functional; conditions: ATCC 25922, 24 h
# [8] = system: Staphylococcus aureus; assay: Antibacterial activity against methicillin-resistant Staphylococcus aureus ATCC 43300 after 24 hrs in Mueller-Hinton broth medium; assay type: functional; conditions: ATCC 43300, 24 h
# [9] = system: Brucella abortus; assay: Antibacterial activity against Brucella abortus 9.49 (per-) after 48 hrs in Mueller-Hinton broth medium; assay type: functional
# [10] = system: Acinetobacter baumannii; assay: Antibacterial activity against Acinetobacter baumannii ATCC 19606 after 24 hrs in Mueller-Hinton broth medium; assay type: functional; conditions: ATCC 19606, 24 h
# [11] = system: HeLa; assay: Cytotoxicity against human HeLa cells at 100 ug/ml after 24 hrs by MTT assay relative to control; assay type: functional
# [12] = Toxicity in human erythrocytes assessed as hemolysis at 100 ug/ml; assay type: cell-based, Erythrocyte; conditions: read-out: Activity
Structure (SMILES),MBC [1] [µg/mL],MBC [2] [µg/mL],MBC [3] [µg/mL],MIC [3] [µg/mL],Activity [4] [%],MBC [5] [µg/mL],MBC [6] [µg/mL],MBC [7] [µg/mL],MBC [8] [µg/mL],MIC [9] [µg/mL],MBC [10] [µg/mL],MIC [10] [µg/mL],Activity [11],MIC [2] [µg/mL],MIC [5] [µg/mL],MIC [6] [µg/mL],MIC [7] [µg/mL],MIC [8] [µg/mL],hemolysis at 100 ug/ml [12] [%]
CC[C@H](C)[C@H](NC(=O)CN)C(=O)NCC(=O)N[C@@H](C)C(=O)N[C@H](C(=O)N[C@@H](CC(C)C)C(=O)N[C@@H](CCCCN)C(=O)N[C@H](C(=O)N[C@@H](CC(C)C)C(=O)N[C@H](C(=O)N[C@H](C(=O)NCC(=O)N[C@@H](CC(C)C)C(=O)N1CCC[C@H]1C(=O)N[C@@H](C)C(=O)N[C@@H](CC(C)C)C(=O)N[C@H](C(=O)N[C@@H](CO)C(=O)N[C@@H](Cc1c[nH]c2ccccc12)C(=O)N[C@H](C(=O)N[C@@H](CCCCN)C(=O)N[C@@H](CCCNC(=N)N)C(=O)N[C@@H](CCCCN)C(=O)N[C@@H](CCCNC(=N)N)C(=O)N[C@@H](CCC(N)=O)C(=O)N[C@@H](CCC(N)=O)C(N)=O)[C@@H](C)CC)[C@@H](C)CC)[C@@H](C)O)[C@@H](C)O)C(C)C)C(C)C [MELITTIN],4,4,4,4,86,16,12.5,4,2,4,2,2,90.1%,,,,,,
CC[C@H](C)[C@H](NC(=O)[C@H](CCCCN)NC(=O)[C@H](CCCCN)NC(=O)[C@H](CO)NC(=O)[C@@H](NC(=O)[C@@H](N)CCCCN)[C@@H](C)CC)C(=O)N[C@@H](CCSC)C(=O)N[C@@H](CCCNC(=N)N)C(=O)N[C@H](C(=O)N[C@@H](Cc1ccccc1)C(=O)N[C@@H](CC(C)C)C(=O)N[C@@H](CCCNC(=N)N)C(=O)N[C@@H](CCCNC(=N)N)C(=O)N[C@H](C(=O)N[C@@H](CC(C)C)C(=O)N[C@H](C(=O)NCC(=O)N[C@@H](CCCCN)C(=O)N[C@@H](CCCCN)C(N)=O)[C@@H](C)O)[C@@H](C)CC)[C@@H](C)O (H-KISKKIMRTFLRRILTGKK-NH2),32,8,128,128,56.4,8,50,16,256,2,4,4,21.1%,8,8,25,16,256,
CC[C@H](C)[C@H](NC(=O)[C@H](CCCNC(=N)N)NC(=O)[C@H](CCCNC(=N)N)NC(=O)[C@H](CO)NC(=O)[C@@H](NC(=O)CNC(=O)[C@H](CCCNC(=N)N)NC(=O)[C@H](CC(C)C)NC(=O)[C@@H](NC(=O)[C@@H](N)CCCNC(=N)N)[C@@H](C)CC)C(C)C)C(=O)N[C@@H](CCSC)C(=O)N[C@@H](CCCNC(=N)N)C(=O)N[C@@H](CCCNC(=N)N)C(=O)N[C@H](C(=O)N[C@@H](CC(C)C)C(=O)N[C@H](C(=O)NCC(=O)N[C@@H](CCCNC(=N)N)C(=O)N[C@@H](CCCNC(=N)N)C(N)=O)[C@@H](C)O)[C@@H](C)CC [RILRGVSRRIM RR ILTGRR] (H-RILRGVSRRIMRRILTGRR-NH2),32,16,4,4,13.5,128,16,16,32,8,8,8,6.6%,16,32,16,16,32,
CC[C@H](C)[C@H](NC(=O)[C@H](CCCNC(=N)N)NC(=O)[C@H](CCCNC(=N)N)NC(=O)[C@H](CC(C)C)NC(=O)[C@H](Cc1ccccc1)NC(=O)[C@@H](NC(=O)[C@H](CCCNC(=N)N)NC(=O)[C@H](CCSC)NC(=O)[C@@H](NC(=O)[C@H](CCCCN)NC(=O)[C@H](CCCCN)NC(=O)[C@H](CO)NC(=O)[C@@H](NC(=O)CNC(=O)[C@H](CCCNC(=N)N)NC(=O)[C@H](CC(C)C)NC(=O)[C@@H](NC(=O)[C@@H](N)CCCCN)[C@@H](C)CC)C(C)C)[C@@H](C)CC)[C@@H](C)O)C(=O)N[C@@H](CO)C(=O)N[C@@H](CCCCN)C(=O)N[C@@H](CC(=O)O)C(=O)N[C@H](C(=O)N[C@@H](CC(C)C)C(=O)N[C@H](C(=O)NCC(=O)N[C@@H](CCCCN)C(=O)N[C@@H](CCCCN)C(=O)O)[C@@H](C)O)[C@@H](C)CC (H-KILRGVSKKIMRTFLRRISKDILTGKK-OH),,,,,6.9,,8,,,,,,6.5%,,,8,,,< 5
CC[C@H](C)[C@H](NC(=O)[C@H](CCCNC(=N)N)NC(=O)[C@H](CCCNC(=N)N)NC(=O)[C@H](CC(C)C)NC(=O)[C@H](Cc1ccccc1)NC(=O)[C@@H](NC(=O)[C@H](CCCNC(=N)N)NC(=O)[C@H](CCSC)NC(=O)[C@@H](NC(=O)[C@H](CCCCN)NC(=O)[C@H](CCCCN)NC(=O)[C@H](CO)NC(=O)[C@@H](NC(=O)[C@@H](N)CCCCN)[C@@H](C)CC)[C@@H](C)CC)[C@@H](C)O)C(=O)N[C@@H](CO)C(=O)N[C@@H](CCCCN)C(=O)N[C@@H](CC(=O)O)C(=O)N[C@H](C(=O)N[C@@H](CC(C)C)C(=O)N[C@H](C(=O)NCC(=O)N[C@@H](CCCCN)C(=O)N[C@@H](CCCCN)C(N)=O)[C@@H](C)O)[C@@H](C)CC (H-KISKKIMRTFLRRISKDILTGKK-NH2),64,4,1,1,,4,12.5,4,> 256,2,4,4,inactive,4,4,12.5,4,> 256,< 5
CC[C@H](C)[C@H](NC(=O)[C@H](CCCCN)NC(=O)[C@H](CCCCN)NC(=O)[C@H](CO)NC(=O)[C@@H](NC(=O)CNC(=O)[C@H](CCCNC(=N)N)NC(=O)[C@H](CC(C)C)NC(=O)[C@@H](NC(=O)[C@@H](N)CCCCN)[C@@H](C)CC)C(C)C)C(=O)N[C@@H](CCSC)C(=O)N[C@@H](CCCNC(=N)N)C(=O)N[C@H](C(=O)N[C@@H](Cc1ccccc1)C(=O)N[C@@H](CC(C)C)C(=O)N[C@@H](CCCNC(=N)N)C(=O)N[C@@H](CCCNC(=N)N)C(N)=O)[C@@H](C)O (H-KILRGVSKKIMRTFLRR-NH2),64,16,8,8,,128,8,32,128,16,16,8,inactive,8,128,4,32,128,< 5
CC[C@H](C)[C@H](N)C(=O)N[C@@H](CO)C(=O)N[C@@H](CCCCN)C(=O)N[C@@H](CCCNC(=N)N)C(=O)N[C@H](C(=O)N[C@@H](CC(C)C)C(=O)N[C@H](C(=O)NCC(=O)N[C@@H](CCCCN)C(=O)N[C@@H](CCCCN)C(=O)O)[C@@H](C)O)[C@@H](C)CC (H-ISKRILTGKK-OH),> 256,> 256,> 256,> 256,,> 256,> 200,> 256,> 256,> 64,> 256,> 256,inactive,> 256,> 256,> 200,> 256,> 256,< 5
